What was measured:
[1] = molecular target: T1, S-adenosylmethionine decarboxylase proenzyme (Homo sapiens) (UniProt P17707); assay: Compound was evaluated for Enzyme kinetic inactivation constant: Kinact for S-Adenosyl-methionine decarboxylase (AdoMet-DC) enzyme
T1 sequence (whole entry): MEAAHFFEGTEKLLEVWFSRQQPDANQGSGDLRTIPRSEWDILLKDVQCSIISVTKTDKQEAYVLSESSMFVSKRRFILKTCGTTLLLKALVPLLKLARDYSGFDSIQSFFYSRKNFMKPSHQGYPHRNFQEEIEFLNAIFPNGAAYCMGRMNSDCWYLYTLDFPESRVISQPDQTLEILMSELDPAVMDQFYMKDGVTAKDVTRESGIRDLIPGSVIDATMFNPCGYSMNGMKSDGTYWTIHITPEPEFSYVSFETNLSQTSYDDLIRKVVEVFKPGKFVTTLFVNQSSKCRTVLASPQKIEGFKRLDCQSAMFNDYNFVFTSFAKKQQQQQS

[2] = molecular target: T2, S-adenosylmethionine decarboxylase proenzyme (Homo sapiens, UniProt P17707); assay: Compound was evaluated to inactivate the human AdoMet-DC
T2 sequence (P17707 whole entry): T1 sequence (whole entry)

K inact [1] [min⁻¹]	Ki [2] [µM]	K inact ([1]; Escherichia coli) [min⁻¹]	Structure (SMILES)
0.03	7.2		C[S+](CCCC(N)C#N)C[C@H]1O[C@@H](n2cnc3c(N)ncnc32)[C@H](O)[C@@H]1O (stereo not given in full)
0.29	247	0.06	C[S+](CCC(N)C#N)C[C@H]1O[C@@H](n2cnc3c(N)ncnc32)[C@H](O)[C@@H]1O (stereo not given in full)

Reference: ChEMBL document CHEMBL1152070, “-cyano-substituted analogoues of decarboxylated S-adenosylmethionine as enzyme activated, irreversible inhibitors of S-adenosylmethionine decarboxylase” (Bioorg Med Chem Lett, 1993)
